Assays:
Format in all cases: cell-based, human
Jurkat T-REx cell clones = assay: TNF-induced NF-κB-dependent gene expression by qPCR; settings: TNF 100 ng/ml 3 hrs, PUGNAc overnight
Protocol: Cells were treated with TNF (100 ng/ml) for 3 hrs. Jurkat T-REx cell clones expressing wild-type and mutant c-Rel were induced with doxycycline for 22 hrs, treated with PUGNAc overnight and then treated with anti-CD3/C28 for 3 hrs. Quantitative real time PCR (qPCR) was performed at least in three independent experiments in triplicates and the relative levels of indicated genes were calculated with respect to the expression of transferrin receptor. Statistical significance was determined by two-tailed unpaired Student's t test and represented as mean±SEM.

Jurkat cells = assay: anti-CD3/CD28-induced c-Rel dependent gene expression by quantitative real time PCR
Protocol: Jurkat cells were treated with PUGNAc (100 μM) for 12 hours and then treated with plate bound anti-CD3/CD28 (2 μg/ml) for 3 hours. Some cells were additionally treated overnight with Streptozotocin (STZ, 2 mM) prior to PUGNAc treatment. Gene expression was analyzed by quantitative real time PCR. In other cases, Jurkat T-REx cell clones expressing wild-type and mutant c-Rel were induced with doxycycline for 22 hrs, treated with PUGNAc overnight and then treated with anti-CD3/C28 for 3 hrs.
DNA-free RNA was prepared using the RNeasy Mini Kit according to the manufacturer's instructions (Qiagen). cDNA was synthesized from 0.5-1.0 μg total RNA using random hexamers (Promega) and Superscript III reverse transcriptase first-strand synthesis kit (Invitrogen, Carlsbad, Calif.). Quantitative real time PCR using cDNA corresponding to 20-60 ng of total RNA and Taqman Gene Expression Assays (Applied Biosystems, Foster City, Calif.) was performed in a Real-Time PCR machine (Realplex, Eppendorf) according to the manufacturer's instructions. The results obtained for individual genes were normalized to the expression of TFR for human genes and UBE2D2 for mouse genes. Quantitative real time PCR (qPCR) was performed at least in three independent experiments in triplicates and the relative levels of indicated genes were calculated with respect to the expression of transferrin receptor. Statistical significance was determined by two-tailed unpaired Student's t test and represented as mean±SEM.

c-Rel [1] = assay: TNF-induced nuclear translocation assay, c-Rel; settings: Jurkat cells, PUGNAc overnight then TNF
Protocol: (§1) Jurkat cells were treated overnight with PUGNAc and then with TNF. Nuclear extracts were analyzed for c-Rel and p65 nuclear translocation. p105 was used as the loading control.

[2] = test system: c-Rel binding CD28RE region; assay: Electrophoretic mobility shift assay, anti-CD3/CD28-induced binding of nuclear extracts to CD28RE probe
Protocol: Jurkat cells were cultured at 1.5×10^6 cells/ml in 6-well plates or 10 cm plates in the presence of 1 μg/ml of Doxycycline for 22 hours for the induction of FLAG-c-Rel. Cells were stimulated for the indicated time points (3 hours) with plate bound anti-CD3 and anti-CD28 (2 μg/ml each). […] PLCγ, Lamin and SP1 were used as loading controls. Cytoplasmic and nuclear extracts were also prepared after culturing in the presence of 1 μg/ml of Doxycycline for 22 hours for the induction of FLAG-c-Rel. FLAG-c-Rel was immunoprecipitated and analyzed with anti-O-GlcNAc antibody.
Nuclear protein extracts were prepared as described^7. Nuclear extracts corresponding to 4-6 μg of protein were tested for DNA binding using the probes containing c-Rel binding CD28RE region and p65 binding IL2-κB region. OCT1 probe was used as a control. In the probe containing CD28RE-NF-IL-2B AP-1 region, the AP site was mutated as previously described to restrict the protein binding only to the CD28RE site in our assays. (Shapiro et al. Mol Cell Biol 17:4051-4058 (1997).) Lysates were incubated with [^32P] γATP labeled probe in the binding buffer (Tris-Cl 10 mM, pH 7.5, Nacl 50 mM, glycerol 4%, MgCl2 1 mM, EDTA 0.1 mM, poly(dI-dC) 50 μg/ml, and 0.1 mM DTT) for 20 min at room temperature. […] Samples were separated in 5% non-denaturing polyacrylamide gel and analyzed by autoradiography.

p65 = assay: TNF-induced nuclear translocation assay, p65; settings: Jurkat cells, PUGNAc overnight then TNF
Protocol: as §1

c-Rel [3] = assay: c-Rel O-GlcNAcylation, immunoprecipitation and anti-O-GlcNAc western blot; settings: Jurkat cells, 30 mM glucose, PUGNAc 100 μM for 3 hrs
[4] = Jurkat cells, PUGNAc 100 μM 12 hours, then anti-CD3/CD28 3 hours

Question: Which results are given for `CC(=O)N[C@H]1/C(=N/OC(=O)Nc2ccccc2)O[C@H](CO)[C@@H](O)[C@@H]1O` [PUGNAc, O-(2-acetamido-2-deoxy-D-glucopyranosylidene)amino-N-phenylcarbamate]?
Answer: TNF-induced expression of A20 (Jurkat T-REx cell clones): neither affected; TNF-induced expression of IκBα (Jurkat T-REx cell clones): neither affected; expression of c-Rel-dependent genes in wild-type versus mutant c-Rel cells (Jurkat cells; Jurkat T-REx clones expressing wild-type or S350A c-Rel, PUGNAc overnight, anti-CD3/CD28 3 hrs): significantly potentiated the expression of c-Rel-dependent genes only in wild-type c-Rel expressing cells; anti-CD3/CD28-induced expression of GMCSF (Jurkat cells; [4]): significantly potentiated; anti-CD3/CD28-induced expression of IL-2 (Jurkat cells; [4]): significantly potentiated; TCR-induced expression of A20 and IκBα (Jurkat cells; PUGNAc treatment): did not observe any effect; TNF induced c-Rel nuclear translocation (c-Rel [1]): no effect; anti-CD3/CD28-induced CD28RE DNA binding ([2]; PUGNAc and high glucose treatment): significantly increased; TNF-induced nuclear p65 levels (p65): decreased; O-GlcNAcylation of c-Rel (c-Rel [3]): further enhanced the O-GlcNAcylation of c-Rel

Question: With `[N-]=[N+]=CC(=O)CC[C@H](N)C(=O)O` [DON, 6-diazo-5-oxo-L-norleucine] as the compound, how does the “anti-CD3/CD28-induced CD28RE binding of nuclear extracts” value ([2]; wild-type c-Rel expressing Jurkat cells, DON overnight) read?
Answer: The value was “decreased”.

Question: `CN(N=O)C(=O)N[C@H]1C(O)O[C@H](CO)[C@@H](O)[C@@H]1O` (mixture of isomers) [Streptozotocin] was tested. Which “anti-CD3/CD28-induced c-Rel-dependent gene expression (GMCSF)” value (Jurkat cells; STZ 2 mM overnight) did it give?
Answer: Its value is “enhanced”.
